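In this assay, cells in 96-well plates receive the compound at five concentrations for 48 hours. Endpoints are linearly interpolated between the surrounding concentrations. At the TGI there is no net growth.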
What follows are compounds tested on SNB-78 CNS (assay: NCI-60 cell line screen, 48 h).

| SMILES | TGI [µM] |
| --- | --- |
| O=C1c2ccccc2S[C@@H](O)[C@@H]2CCCN12 | > 100 |
| COc1cc2c(c(OC)c1OC)-c1ccc(SC)c(=O)cc1C(CC(=O)Oc1ccc([N+](=O)[O-])cc1)C2 (stereo not drawn) | 41 |
| CC(=O)NC(CCCN)C(=O)NCc1ccccc1 (stereo not drawn) | > 100 |
| O=C1CCC(c2ccccc2)C(O)(C(=O)O)C1 (stereo not drawn) | > 100 |
| CCCN(CCCCC(NC(C)=O)C(=O)NCc1ccccc1)C(=O)N(CCCl)N=O (stereo not drawn) | > 100 |
| COc1cc(C2c3cc4c(cc3[C@H](OCCN(C)C)[C@@H]3COC(=O)C23)OCO4)cc(OC)c1O (stereo partly drawn) | > 93.2 |
| N#CCCN(CCC#N)c1ccc(C(=O)NN)cc1 | > 100 |
| CC1=CC(=O)NP(=O)(Oc2ccc(C)cc2)N1 (stereo not drawn) | > 100 |
| CC(=O)OC1CC2OC(Cc3ccccc32)O1 (stereo not drawn) | > 100 |

Each compound was assayed on CCRF-CEM leukemia (assay: NCI-60 cell line screen, 48 h).

| SMILES | TGI [µM] |
| --- | --- |
| O=C1c2ccccc2S[C@@H](O)[C@@H]2CCCN12 | > 100 |
| CN(C)/N=C(\CCN1CCCC1)CC(c1ccccc1)c1c(O)c2ccccc2oc1=O (stereo not drawn) | > 100 |
| COc1cc2c(c(OC)c1OC)-c1ccc(SC)c(=O)cc1C(CC(=O)Oc1ccc([N+](=O)[O-])cc1)C2 (stereo not drawn) | > 100 |
| CC(=O)NC(CCCN)C(=O)NCc1ccccc1 (stereo not drawn) | > 100 |
| O=C1CCC(c2ccccc2)C(O)(C(=O)O)C1 (stereo not drawn) | > 100 |
| CCCN(CCCCC(NC(C)=O)C(=O)NCc1ccccc1)C(=O)N(CCCl)N=O (stereo not drawn) | > 100 |
| COc1cc(C2c3cc4c(cc3[C@H](OCCN(C)C)[C@@H]3COC(=O)C23)OCO4)cc(OC)c1O (stereo partly drawn) | 1.73 |
| N#CCCN(CCC#N)c1ccc(C(=O)NN)cc1 | > 100 |
| CC1=CC(=O)NP(=O)(Oc2ccc(C)cc2)N1 (stereo not drawn) | > 100 |
| CC(=O)OC1CC2OC(Cc3ccccc32)O1 (stereo not drawn) | > 100 |

What follows are compounds tested on HOP-18 NSCLC (assay: NCI-60 cell line screen, 48 h).

| SMILES | TGI [µM] |
| --- | --- |
| O=C1c2ccccc2S[C@@H](O)[C@@H]2CCCN12 | > 100 |
| COc1cc2c(c(OC)c1OC)-c1ccc(SC)c(=O)cc1C(CC(=O)Oc1ccc([N+](=O)[O-])cc1)C2 (stereo not drawn) | > 48.9 |
| O=C1CCC(c2ccccc2)C(O)(C(=O)O)C1 (stereo not drawn) | > 100 |
| CCCN(CCCCC(NC(C)=O)C(=O)NCc1ccccc1)C(=O)N(CCCl)N=O (stereo not drawn) | > 100 |
| COc1cc(C2c3cc4c(cc3[C@H](OCCN(C)C)[C@@H]3COC(=O)C23)OCO4)cc(OC)c1O (stereo partly drawn) | > 100 |
| N#CCCN(CCC#N)c1ccc(C(=O)NN)cc1 | > 100 |
| CC1=CC(=O)NP(=O)(Oc2ccc(C)cc2)N1 (stereo not drawn) | > 100 |
| CC(=O)OC1CC2OC(Cc3ccccc32)O1 (stereo not drawn) | 94.9 |

The compounds below were run on UACC-257 melanoma (assay: NCI-60 cell line screen, 48 h).

| SMILES | TGI [µM] |
| --- | --- |
| O=C1c2ccccc2S[C@@H](O)[C@@H]2CCCN12 | > 100 |
| CN(C)/N=C(\CCN1CCCC1)CC(c1ccccc1)c1c(O)c2ccccc2oc1=O (stereo not drawn) | > 100 |
| COc1cc2c(c(OC)c1OC)-c1ccc(SC)c(=O)cc1C(CC(=O)Oc1ccc([N+](=O)[O-])cc1)C2 (stereo not drawn) | > 49.1 |
| CC(=O)NC(CCCN)C(=O)NCc1ccccc1 (stereo not drawn) | > 100 |
| O=C1CCC(c2ccccc2)C(O)(C(=O)O)C1 (stereo not drawn) | > 100 |
| CCCN(CCCCC(NC(C)=O)C(=O)NCc1ccccc1)C(=O)N(CCCl)N=O (stereo not drawn) | > 100 |
| COc1cc(C2c3cc4c(cc3[C@H](OCCN(C)C)[C@@H]3COC(=O)C23)OCO4)cc(OC)c1O (stereo partly drawn) | 11.4 |
| N#CCCN(CCC#N)c1ccc(C(=O)NN)cc1 | > 100 |
| CC1=CC(=O)NP(=O)(Oc2ccc(C)cc2)N1 (stereo not drawn) | > 100 |
| CC(=O)OC1CC2OC(Cc3ccccc32)O1 (stereo not drawn) | > 100 |

These compounds were tested on RXF-631 renal (assay: NCI-60 cell line screen, 48 h).

| SMILES | TGI [µM] |
| --- | --- |
| COc1cc2c(c(OC)c1OC)-c1ccc(SC)c(=O)cc1C(CC(=O)Oc1ccc([N+](=O)[O-])cc1)C2 (stereo not drawn) | 0.052 |
| O=C1CCC(c2ccccc2)C(O)(C(=O)O)C1 (stereo not drawn) | > 100 |
| CCCN(CCCCC(NC(C)=O)C(=O)NCc1ccccc1)C(=O)N(CCCl)N=O (stereo not drawn) | > 100 |
| COc1cc(C2c3cc4c(cc3[C@H](OCCN(C)C)[C@@H]3COC(=O)C23)OCO4)cc(OC)c1O (stereo partly drawn) | 1.07 |
| N#CCCN(CCC#N)c1ccc(C(=O)NN)cc1 | > 100 |
| CC1=CC(=O)NP(=O)(Oc2ccc(C)cc2)N1 (stereo not drawn) | > 100 |

The compounds below were run on DMS 273 small cell lung (assay: NCI-60 cell line screen, 48 h).

| SMILES | TGI [µM] |
| --- | --- |
| O=C1c2ccccc2S[C@@H](O)[C@@H]2CCCN12 | > 100 |
| COc1cc2c(c(OC)c1OC)-c1ccc(SC)c(=O)cc1C(CC(=O)Oc1ccc([N+](=O)[O-])cc1)C2 (stereo not drawn) | > 36.9 |
| CC(=O)NC(CCCN)C(=O)NCc1ccccc1 (stereo not drawn) | > 100 |
| O=C1CCC(c2ccccc2)C(O)(C(=O)O)C1 (stereo not drawn) | > 100 |
| CCCN(CCCCC(NC(C)=O)C(=O)NCc1ccccc1)C(=O)N(CCCl)N=O (stereo not drawn) | > 100 |
| COc1cc(C2c3cc4c(cc3[C@H](OCCN(C)C)[C@@H]3COC(=O)C23)OCO4)cc(OC)c1O (stereo partly drawn) | 1.31 |
| N#CCCN(CCC#N)c1ccc(C(=O)NN)cc1 | > 100 |
| CC1=CC(=O)NP(=O)(Oc2ccc(C)cc2)N1 (stereo not drawn) | > 100 |
| CC(=O)OC1CC2OC(Cc3ccccc32)O1 (stereo not drawn) | > 100 |

Each compound was assayed on DMS 114 small cell lung (assay: NCI-60 cell line screen, 48 h).

| SMILES | TGI [µM] |
| --- | --- |
| O=C1c2ccccc2S[C@@H](O)[C@@H]2CCCN12 | > 100 |
| COc1cc2c(c(OC)c1OC)-c1ccc(SC)c(=O)cc1C(CC(=O)Oc1ccc([N+](=O)[O-])cc1)C2 (stereo not drawn) | 0.677 |
| CC(=O)NC(CCCN)C(=O)NCc1ccccc1 (stereo not drawn) | > 100 |
| CCCN(CCCCC(NC(C)=O)C(=O)NCc1ccccc1)C(=O)N(CCCl)N=O (stereo not drawn) | > 100 |
| N#CCCN(CCC#N)c1ccc(C(=O)NN)cc1 | > 100 |
| CC1=CC(=O)NP(=O)(Oc2ccc(C)cc2)N1 (stereo not drawn) | > 100 |
| CC(=O)OC1CC2OC(Cc3ccccc32)O1 (stereo not drawn) | > 100 |

What follows are compounds tested on M19-MEL melanoma (assay: NCI-60 cell line screen, 48 h).

| SMILES | TGI [µM] |
| --- | --- |
| O=C1c2ccccc2S[C@@H](O)[C@@H]2CCCN12 | > 100 |
| CN(C)/N=C(\CCN1CCCC1)CC(c1ccccc1)c1c(O)c2ccccc2oc1=O (stereo not drawn) | > 100 |
| COc1cc2c(c(OC)c1OC)-c1ccc(SC)c(=O)cc1C(CC(=O)Oc1ccc([N+](=O)[O-])cc1)C2 (stereo not drawn) | 36.9 |
| CC(=O)NC(CCCN)C(=O)NCc1ccccc1 (stereo not drawn) | > 100 |

Source: PubChem BioAssay (NCI)
